{
  "source": "PubChem BioAssay AID1963963",
  "about": "(Molecular Pharmacology Branch, DTP, NCI, 2024);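 further: spheroids exposed to compounds for seven days before readout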",
  "test_system": "958667-338-R-J2-PDC tumor spheroids viability",
  "experiment": "Anticancer human tumor 958667-338-R-J2-PDC patient-derived colon adenocarcinoma cell line growth inhibition [PI3K]",
  "conditions": "spheroids with HUVEC and MSC; for IC50: curve of first compound; for viability, T/C: stronger effect = lower value",
  "in_short": "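Agents were dosed from a top concentration near clinical Cmax (otherwise 10 microM) in half-log decrements, alone or combined with PI3K inhibitors. The spheroids contain tumor cells plus endothelial (HUVEC) and MSC stroma; viability is measured.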",
  "key": {"[1]": {"conditions": "second compound 0.00316 µM, first compound 0.000316 µM"}, "[2]": {"conditions": "second compound 0.00316 µM, first compound 0.001 µM"}, "[3]": {"conditions": "second compound 0.00316 µM, first compound 0.00316 µM"}, "[4]": {"conditions": "second compound 0.00316 µM, first compound 0.01 µM"}, "[5]": {"conditions": "second compound 0.00316 µM, first compound 0.0316 µM"}, "[6]": {"conditions": "second compound 0.00316 µM, first compound 0.1 µM"}, "[7]": {"conditions": "second compound 0.01 µM, first compound 0.000316 µM"}, "[8]": {"conditions": "second compound 0.01 µM, first compound 0.001 µM"}, "[9]": {"conditions": "second compound 0.01 µM, first compound 0.00316 µM"}, "[10]": {"conditions": "second compound 0.01 µM, first compound 0.01 µM"}, "[11]": {"conditions": "second compound 0.01 µM, first compound 0.0316 µM"}, "[12]": {"conditions": "second compound 0.01 µM, first compound 0.1 µM"}, "[13]": {"conditions": "second compound 0.0316 µM, first compound 0.000316 µM"}, "[14]": {"conditions": "second compound 0.0316 µM, first compound 0.001 µM"}, "[15]": {"conditions": "second compound 0.0316 µM, first compound 0.00316 µM"}, "[16]": {"conditions": "second compound 0.0316 µM, first compound 0.01 µM"}, "[17]": {"conditions": "second compound 0.0316 µM, first compound 0.0316 µM"}, "[18]": {"conditions": "second compound 0.0316 µM, first compound 0.1 µM"}, "[19]": {"conditions": "second compound 0.1 µM, first compound 0.000316 µM"}, "[20]": {"conditions": "second compound 0.1 µM, first compound 0.001 µM"}, "[21]": {"conditions": "second compound 0.1 µM, first compound 0.00316 µM"}, "[22]": {"conditions": "second compound 0.1 µM, first compound 0.01 µM"}, "[23]": {"conditions": "second compound 0.1 µM, first compound 0.0316 µM"}, "[24]": {"conditions": "second compound 0.1 µM, first compound 0.1 µM"}, "[25]": {"conditions": "second compound 0.316 µM, first compound 0.000316 µM"}, "[26]": {"conditions": "second compound 0.316 µM, first compound 0.001 µM"}, "[27]": {"conditions": "second compound 0.316 µM, first compound 0.00316 µM"}, "[28]": {"conditions": "second compound 0.316 µM, first compound 0.01 µM"}, "[29]": {"conditions": "second compound 0.316 µM, first compound 0.0316 µM"}, "[30]": {"conditions": "second compound 0.316 µM, first compound 0.1 µM"}, "[31]": {"conditions": "second compound 1 µM, first compound 0.000316 µM"}, "[32]": {"conditions": "second compound 1 µM, first compound 0.001 µM"}, "[33]": {"conditions": "second compound 1 µM, first compound 0.00316 µM"}, "[34]": {"conditions": "second compound 1 µM, first compound 0.01 µM"}, "[35]": {"conditions": "second compound 1 µM, first compound 0.0316 µM"}, "[36]": {"conditions": "second compound 1 µM, first compound 0.1 µM"}},
  "data": [
    {"smiles": "CC(=O)c1c(C)c2cnc(Nc3ccc(N4CCNCC4)cn3)nc2n(C2CCCC2)c1=O", "note": "+ COc1c(OCCCN2CCOCC2)ccc2c3n(c(=NC(=O)c4cnc(N)nc4)nc12)CCN3", "values": [
      {"measurement": "IC50", "setting": "second compound 0.00316 µM", "result": "> 100", "unit": "nM"},
      {"measurement": "IC50", "setting": "second compound 0.01 µM", "result": "> 100", "unit": "nM"},
      {"measurement": "IC50", "setting": "second compound 0.0316 µM", "result": "> 100", "unit": "nM"},
      {"measurement": "IC50", "setting": "second compound 0.1 µM", "result": "> 100", "unit": "nM"},
      {"measurement": "IC50", "setting": "second compound 0.316 µM", "result": "< 0.316", "unit": "nM"},
      {"measurement": "IC50", "setting": "second compound 1 µM", "result": "< 0.316", "unit": "nM"},
      {"measurement": "viability, T/C", "setting": "[1]", "result": 103, "unit": "%"},
      {"measurement": "viability, T/C", "setting": "[2]", "result": 101, "unit": "%"},
      {"measurement": "viability, T/C", "setting": "[3]", "result": 97.2, "unit": "%"},
      {"measurement": "viability, T/C", "setting": "[4]", "result": 98.2, "unit": "%"},
      {"measurement": "viability, T/C", "setting": "[5]", "result": 108, "unit": "%"},
      {"measurement": "viability, T/C", "setting": "[6]", "result": 62.8, "unit": "%"},
      {"measurement": "viability, T/C", "setting": "[7]", "result": 82.9, "unit": "%"},
      {"measurement": "viability, T/C", "setting": "[8]", "result": 67.7, "unit": "%"},
      {"measurement": "viability, T/C", "setting": "[9]", "result": 90.8, "unit": "%"},
      {"measurement": "viability, T/C", "setting": "[10]", "result": 79.1, "unit": "%"},
      {"measurement": "viability, T/C", "setting": "[11]", "result": 83.3, "unit": "%"},
      {"measurement": "viability, T/C", "setting": "[12]", "result": 69.9, "unit": "%"},
      {"measurement": "viability, T/C", "setting": "[13]", "result": 75.7, "unit": "%"},
      {"measurement": "viability, T/C", "setting": "[14]", "result": 94.8, "unit": "%"},
      {"measurement": "viability, T/C", "setting": "[15]", "result": 75.5, "unit": "%"},
      {"measurement": "viability, T/C", "setting": "[16]", "result": 56.7, "unit": "%"},
      {"measurement": "viability, T/C", "setting": "[17]", "result": 67.3, "unit": "%"},
      {"measurement": "viability, T/C", "setting": "[18]", "result": 56.3, "unit": "%"},
      {"measurement": "viability, T/C", "setting": "[19]", "result": 64.9, "unit": "%"},
      {"measurement": "viability, T/C", "setting": "[20]", "result": 61.8, "unit": "%"},
      {"measurement": "viability, T/C", "setting": "[21]", "result": 51.5, "unit": "%"},
      {"measurement": "viability, T/C", "setting": "[22]", "result": 70.2, "unit": "%"},
      {"measurement": "viability, T/C", "setting": "[23]", "result": 62.7, "unit": "%"},
      {"measurement": "viability, T/C", "setting": "[24]", "result": 50.7, "unit": "%"},
      {"measurement": "viability, T/C", "setting": "[25]", "result": 37.2, "unit": "%"},
      {"measurement": "viability, T/C", "setting": "[26]", "result": 42.5, "unit": "%"},
      {"measurement": "viability, T/C", "setting": "[27]", "result": 49.1, "unit": "%"},
      {"measurement": "viability, T/C", "setting": "[28]", "result": 42.9, "unit": "%"},
      {"measurement": "viability, T/C", "setting": "[29]", "result": 35, "unit": "%"},
      {"measurement": "viability, T/C", "setting": "[30]", "result": 26.6, "unit": "%"},
      {"measurement": "viability, T/C", "setting": "[31]", "result": 17.8, "unit": "%"},
      {"measurement": "viability, T/C", "setting": "[32]", "result": 20.3, "unit": "%"},
      {"measurement": "viability, T/C", "setting": "[33]", "result": 18, "unit": "%"},
      {"measurement": "viability, T/C", "setting": "[34]", "result": 20.3, "unit": "%"},
      {"measurement": "viability, T/C", "setting": "[35]", "result": 22.3, "unit": "%"},
      {"measurement": "viability, T/C", "setting": "[36]", "result": 17.2, "unit": "%"}
    ]},
    {"smiles": "CC(C)n1nc(-c2ccc3oc(N)nc3c2)c2c(N)ncnc21", "note": "+ COc1c(OCCCN2CCOCC2)ccc2c3n(c(=NC(=O)c4cnc(N)nc4)nc12)CCN3", "values": [
      {"measurement": "IC50", "setting": "second compound 0.00316 µM", "result": 77.8, "unit": "nM"},
      {"measurement": "IC50", "setting": "second compound 0.01 µM", "result": 60.9, "unit": "nM"},
      {"measurement": "IC50", "setting": "second compound 0.0316 µM", "result": 22.8, "unit": "nM"},
      {"measurement": "IC50", "setting": "second compound 0.1 µM", "result": 9.88, "unit": "nM"},
      {"measurement": "IC50", "setting": "second compound 0.316 µM", "result": "< 0.316", "unit": "nM"},
      {"measurement": "IC50", "setting": "second compound 1 µM", "result": "< 0.316", "unit": "nM"},
      {"measurement": "viability, T/C", "setting": "[1]", "result": 88.1, "unit": "%"},
      {"measurement": "viability, T/C", "setting": "[2]", "result": 112, "unit": "%"},
      {"measurement": "viability, T/C", "setting": "[3]", "result": 99.2, "unit": "%"},
      {"measurement": "viability, T/C", "setting": "[4]", "result": 103, "unit": "%"},
      {"measurement": "viability, T/C", "setting": "[5]", "result": 77.4, "unit": "%"},
      {"measurement": "viability, T/C", "setting": "[6]", "result": 42.4, "unit": "%"},
      {"measurement": "viability, T/C", "setting": "[7]", "result": 73.6, "unit": "%"},
      {"measurement": "viability, T/C", "setting": "[8]", "result": 70, "unit": "%"},
      {"measurement": "viability, T/C", "setting": "[9]", "result": 85.2, "unit": "%"},
      {"measurement": "viability, T/C", "setting": "[10]", "result": 71.6, "unit": "%"},
      {"measurement": "viability, T/C", "setting": "[11]", "result": 74.7, "unit": "%"},
      {"measurement": "viability, T/C", "setting": "[12]", "result": 31.3, "unit": "%"},
      {"measurement": "viability, T/C", "setting": "[13]", "result": 69.6, "unit": "%"},
      {"measurement": "viability, T/C", "setting": "[14]", "result": 74.5, "unit": "%"},
      {"measurement": "viability, T/C", "setting": "[15]", "result": 70, "unit": "%"},
      {"measurement": "viability, T/C", "setting": "[16]", "result": 58.1, "unit": "%"},
      {"measurement": "viability, T/C", "setting": "[17]", "result": 47, "unit": "%"},
      {"measurement": "viability, T/C", "setting": "[18]", "result": 25.2, "unit": "%"},
      {"measurement": "viability, T/C", "setting": "[19]", "result": 67.3, "unit": "%"},
      {"measurement": "viability, T/C", "setting": "[20]", "result": 66.1, "unit": "%"},
      {"measurement": "viability, T/C", "setting": "[21]", "result": 62, "unit": "%"},
      {"measurement": "viability, T/C", "setting": "[22]", "result": 44.2, "unit": "%"},
      {"measurement": "viability, T/C", "setting": "[23]", "result": 41, "unit": "%"},
      {"measurement": "viability, T/C", "setting": "[24]", "result": 21.3, "unit": "%"},
      {"measurement": "viability, T/C", "setting": "[25]", "result": 41.4, "unit": "%"},
      {"measurement": "viability, T/C", "setting": "[26]", "result": 37, "unit": "%"},
      {"measurement": "viability, T/C", "setting": "[27]", "result": 34.7, "unit": "%"},
      {"measurement": "viability, T/C", "setting": "[28]", "result": 33.1, "unit": "%"},
      {"measurement": "viability, T/C", "setting": "[29]", "result": 25.1, "unit": "%"},
      {"measurement": "viability, T/C", "setting": "[30]", "result": 14.7, "unit": "%"},
      {"measurement": "viability, T/C", "setting": "[31]", "result": 17.2, "unit": "%"},
      {"measurement": "viability, T/C", "setting": "[32]", "result": 16.5, "unit": "%"},
      {"measurement": "viability, T/C", "setting": "[33]", "result": 13.6, "unit": "%"},
      {"measurement": "viability, T/C", "setting": "[34]", "result": 17.5, "unit": "%"},
      {"measurement": "viability, T/C", "setting": "[35]", "result": 15.8, "unit": "%"},
      {"measurement": "viability, T/C", "setting": "[36]", "result": 11.5, "unit": "%"}
    ]}
  ]
}
